These are literature values, as cited in patent publication US10231995B2, “Selenium-containing compositions and uses thereof” (SELO MEDICAL GMBH, priority 2001, dated 2019).

Structures are written as SMILES. Read-outs that look alike come from different tables or passages of the source.

Regarding `O=[Se](O)O` [selenite], the “Eo standard redox potential” value reads like this: (acidic medium) −0.740 (acidic medium) Volt; (basic medium) “+0.366 (basic medium) Volt”.
